# Literature values, collected in PubChem BioAssay AID1259409 (Chemical Carcinogenesis Research Information System (CCRIS), 2018).
# “And” between values parts separate entries of the source, which are not always exact repeats. Equal values may be shown once.
# System: rodent chemically induced tumor inhibition, incidence and multiplicity
# Assay: CCRIS tumor inhibitor studies
smiles,measurement,setting,value
CCCCC/C=C/CC/C=C/CCCCCCC(=O)O,"tumour outcome (control, treated, inhibition, significance)","Carcinogen: BENZO[A]PYRENE, 50-32-8, Dose [Inhibitor]: 0, 0.1 ML IN 0.1 ML OLIVE OIL 4 AND 2 D PRIOR TO CARCINOGEN DOSE (CYCLE REPEATED 4 X) (STUDY DURATION: 23 WK), Route [Inhibitor]: GAVAGE, Species: MOUSE, Strain/Sex: ICR/FEMALE, Target Tissue: Type of Lesion: STOMACH: PAPILLOMA, Dose [Carcinogen]: 2 MG IN 0.2 ML OLIVE OIL 1/WK FOR 4 WK","91%, 71%, 22%, p<0.05 and 96%, 96%, 0% and 100%, 71%, 29%, p<0.05"
CC[C@H](C)C(=O)O[C@H]1CCC=C2C=C[C@H](C)[C@H](CC[C@@H]3C[C@@H](O)CC(=O)O3)[C@H]21,"tumour outcome (control, treated, inhibition, significance)","Carcinogen: N-ETHYL-N-HYDROXYETHYLNITROSAMINE, 13147-25-6, Dose [Inhibitor]: 0, 0.02% IN DIET BEGINNING 23 WK POST LAST CARCINOGEN DOSE AND CONTINUING TO WK 40 (STUDY DURATION: 40 WK), Route [Inhibitor]: ORAL, Species: RAT, Strain/Sex: WISTAR/MALE, Target Tissue: Type of Lesion: KIDNEY: RENAL CELL TUMORS, Dose [Carcinogen]: 0.1% IN DIET FOR 2 WK, Promoter: NONE USED","6/17 (35%), 1/10 (10%), 71%, not calculated"
CC[C@H](C)C(=O)O[C@H]1C[C@H](O)C=C2C=C[C@H](C)[C@H](CC[C@@H](O)C[C@@H](O)CC(=O)O)[C@H]21,"tumour outcome (control, treated, inhibition, significance)","Carcinogen: 1,2-DIMETHYLHYDRAZINE, 540-73-8, Dose [Inhibitor]: 0, 0.001% IN DRINKING WATER FOR 30 WK (STUDY DURATION: 30 WK), Route [Inhibitor]: ORAL, Species: MOUSE, Strain/Sex: ICR/FEMALE, Target Tissue: Type of Lesion: COLON: TUMOR, Dose [Carcinogen]: 10 MG/KG BW 1/WK FOR 15 WK, Promoter: NONE USED","21/34 (62%), 14/30 (47%), 24%, not significant"
same,"tumour outcome (control, treated, inhibition, significance)","Carcinogen: 1,2-DIMETHYLHYDRAZINE, 540-73-8, Dose [Inhibitor]: 0, 0.005% IN DRINKING WATER FOR 30 WK (STUDY DURATION: 30 WK), Route [Inhibitor]: ORAL, Species: MOUSE, Strain/Sex: ICR/FEMALE, Target Tissue: Type of Lesion: COLON: TUMOR, Dose [Carcinogen]: 10 MG/KG BW 1/WK FOR 15 WK, Promoter: NONE USED","21/34 (62%), 13/30 (43%), 31%, not significant"
same,"tumour outcome (control, treated, inhibition, significance)","Carcinogen: 1,2-DIMETHYLHYDRAZINE, 540-73-8, Dose [Inhibitor]: 0, 0.01% IN DRINKING WATER FOR 25 WK (STUDY DURATION: 25 WK), Route [Inhibitor]: ORAL, Species: MOUSE, Strain/Sex: ICR/FEMALE, Target Tissue: Type of Lesion: COLON: TUMOR, Dose [Carcinogen]: 10 MG/KG BW 1/WK FOR 15 WK, Promoter: NONE USED","6/15 (40%), 2/15 (13%), 68%, not significant"
same,"tumour outcome (control, treated, inhibition, significance)","Carcinogen: N-METHYL-N-NITROSOUREA, 684-93-5, Dose [Inhibitor]: 0, 1 PPM IN DRINKING WATER FOR 36 WK BEGINNING POST CARCINOGEN TREATMENT (STUDY DURATION: 40 WK), Route [Inhibitor]: ORAL, Species: RAT, Strain/Sex: F344/FEMALE, Target Tissue: Type of Lesion: COLON: ADENOCARCINOMA, Dose [Carcinogen]: 2 MG 3/WK FOR 3 WK, Promoter: NONE USED","24/30 (80%), 23/30 (77%), 4%, not significant"
same,"tumour outcome (control, treated, inhibition, significance)","Carcinogen: N-METHYL-N-NITROSOUREA, 684-93-5, Dose [Inhibitor]: 0, 5 PPM IN DRINKING WATER FOR 36 WK BEGINNING POST CARCINOGEN TREATMENT (STUDY DURATION: 40 WK), Route [Inhibitor]: ORAL, Species: RAT, Strain/Sex: F344/FEMALE, Target Tissue: Type of Lesion: COLON: ADENOCARCINOMA, Dose [Carcinogen]: 2 MG 3/WK FOR 3 WK, Promoter: NONE USED","24/30 (80%), 14/29 (48%), 40%, p<0.05"
same,"tumour outcome (control, treated, inhibition, significance)","Carcinogen: N-METHYL-N-NITROSOUREA, 684-93-5, Dose [Inhibitor]: 0, 25 PPM IN DRINKING WATER FOR 36 WK BEGINNING POST CARCINOGEN TREATMENT (STUDY DURATION: 40 WK), Route [Inhibitor]: ORAL, Species: RAT, Strain/Sex: F344/FEMALE, Target Tissue: Type of Lesion: COLON: ADENOCARCINOMA, Dose [Carcinogen]: 2 MG 3/WK FOR 3 WK, Promoter: NONE USED","24/30 (80%), 15/30 (50%), 38%, p<0.05"
same,"tumour outcome (control, treated, inhibition, significance)","Carcinogen: N-METHYL-N-NITROSOUREA, 684-93-5, Dose [Inhibitor]: 0, 200 PPM IN DRINKING WATER FOR 40 WK BEGINNING CONCURRENTLY WITH CARCINOGEN TREATMENT (STUDY DURATION: 40 WK), Route [Inhibitor]: ORAL, Species: RAT, Strain/Sex: F344/FEMALE, Target Tissue: Type of Lesion: COLON: ADENOCARCINOMA, Dose [Carcinogen]: 2 MG 3/WK FOR 2 WK, Promoter: NONE USED","11/16 (69%), 10/16 (63%), 9%, not significant"
Cc1ncc(C[n+]2csc(CCO)c2C)c(N)n1,"tumour outcome (control, treated, inhibition, significance)","Carcinogen: 7,12-DIMETHYLBENZ[A]ANTHRACENE, 57-97-6, Dose [Inhibitor]: 0.2% IN DRINKING WATER DAILY STARTING 4 WK BEFORE CARCINOGEN TREATMENT AND CONTINUING FOR DURATION OF STUDY (STUDY DURAT, Route [Inhibitor]: ORAL, Species: MOUSE, Strain/Sex: 101/MALE, FEMALE, Target Tissue: Type of Lesion: SKIN: PAPILLOMA, Dose [Carcinogen]: 225 UG IN 0.15 ML ACETONE ONCE, Promoter: CROTON OIL, 8001-28-3","17/19 (89%), 18/20 (90%), -1%, not calculated"
same,"tumour outcome (control, treated, inhibition, significance)","Carcinogen: BENZO[A]PYRENE, 50-32-8, Dose [Inhibitor]: 2.5 MG 2/WK FOR 20 WK STARTING 4 WK BEFORE START OF CARCINOGEN TREATMENT PLUS 0.2% IN DRINKING WATER (STUDY DURATION: 22, Route [Inhibitor]: SUBCUTANEOUS, ORAL, Species: MOUSE, Strain/Sex: 101/MALE, FEMALE, Target Tissue: Type of Lesion: SKIN: PAPILLOMA, Dose [Carcinogen]: 0.2 ML OF 0.25% 2/WK FOR 20 WK, Promoter: NONE USED","13/18 (72%), 5/8 (63%), 13%, not calculated"
same,"tumour outcome (control, treated, inhibition, significance)","Carcinogen: BENZO[A]PYRENE, 50-32-8, Dose [Inhibitor]: 2.5 MG 2/WK FOR 20 WK STARTING 4 WK BEFORE START OF CARCINOGEN TREATMENT PLUS 0.2% IN DRINKING WATER (STUDY DURATION: 37, Route [Inhibitor]: SUBCUTANEOUS, ORAL, Species: MOUSE, Strain/Sex: 101/MALE, FEMALE, Target Tissue: Type of Lesion: SKIN: MALIGNANT TUMOR, Dose [Carcinogen]: 0.2 ML OF 0.25% 2/WK FOR 20 WK, Promoter: NONE USED","12/18 (67%), 5/8 (63%), 6%, not calculated"
same,"tumour outcome (control, treated, inhibition, significance)","Carcinogen: ETHYLNITROSOUREA, 759-73-9, Dose [Inhibitor]: 0, 500 MG/KG MIXED WITH STARCH 1:20 (WEIGHT: WEIGHT) IN DIET 5 D/WK FOR 10 MO (STUDY DURATION: 10 MO), Route [Inhibitor]: ORAL, Species: RAT, Strain/Sex: ALBINO/MALE,FEMALE, Target Tissue: Type of Lesion: BRAIN: GLIOMA OR ASTROCYTOMA, Dose [Carcinogen]: 75 MG/KG IN SALINE BY INTRAVENOUS INJECTION ONCE 21 D AFTER CONCEPTION","21/40 (52%), 14/20 (70%), -35%, not calculated"
same,"tumour outcome (control, treated, inhibition, significance)","Carcinogen: ETHYLNITROSOUREA, 759-73-9, Dose [Inhibitor]: 0, 500 MG/KG MIXED WITH STARCH 1:20 (WEIGHT: WEIGHT) IN DIET 5 D/WK FOR 10 MO (STUDY DURATION: 10 MO), Route [Inhibitor]: ORAL, Species: RAT, Strain/Sex: ALBINO/MALE,FEMALE, Target Tissue: Type of Lesion: KIDNEY: MESENCHYMAL TUMOR OR ADENOCARCINOMA, Dose [Carcinogen]: 75 MG/KG IN SALINE BY INTRAVENOUS INJECTION ONCE 21 D AFTER CONCEPTION","11/40 (28%), 10/20 (50%), -79%, not calculated"
same,"tumour outcome (control, treated, inhibition, significance)","Carcinogen: ETHYLNITROSOUREA, 759-73-9, Dose [Inhibitor]: 0, 500 MG/KG MIXED WITH STARCH 1:20 (WEIGHT: WEIGHT) IN DIET 5 D/WK FOR 10 MO (STUDY DURATION: 10 MO), Route [Inhibitor]: ORAL, Species: RAT, Strain/Sex: ALBINO/MALE,FEMALE, Target Tissue: Type of Lesion: NERVOUS SYSTEM: SCHWANNOMA, Dose [Carcinogen]: 75 MG/KG IN SALINE BY INTRAVENOUS INJECTION ONCE 21 D AFTER CONCEPTION","19/40 (48%), 5/20 (25%), 48%, not calculated"
same,"tumour outcome (control, treated, inhibition, significance)","Carcinogen: ETHYLNITROSOUREA, 759-73-9, Dose [Inhibitor]: 0, 500 MG/KG MIXED WITH STARCH 1:20 (WEIGHT: WEIGHT) IN DIET 5 D/WK FOR 10 MO (STUDY DURATION: 10 MO), Route [Inhibitor]: ORAL, Species: RAT, Strain/Sex: ALBINO/MALE,FEMALE, Target Tissue: Type of Lesion: SPINAL CORD: TUMOR, Dose [Carcinogen]: 75 MG/KG IN SALINE BY INTRAVENOUS INJECTION ONCE 21 D AFTER CONCEPTION","17/40 (42%), 4/20 (20%), 52%, not calculated"
CC(C)=CCC/C(C)=C/C=O,outcome,"Carcinogen: DIMETHYLBENZANTHRACENE, 57-97-6, Dose [Inhibitor]: 0, 1 UMOL IN ACETONE 2/WK ADMINISTERED PRIOR TO EACH PROMOTER DOSE FOR 20 WK (STUDY DURATION: 21 WK), Route [Inhibitor]: DERMAL, Species: MOUSE, Strain/Sex: SKH/HR1/FEMALE, Target Tissue: Type of Lesion: SKIN: TUMOR, Dose [Carcinogen]: 0.1 UMOL IN 0.1 ML ACETONE ONCE, Promoter: TPA, 16561-29-8","88%, 72%, 18%, p 0.05 at 10 wk of promotion: 96%, 96%, 0%, not calculated at 15"
